According to US20070275147A1, “SYNTHETIC SWEETENER COMPOSITIONS WITH IMPROVED TEMPORAL PROFILE AND/OR FLAVOR PROFILE, METHODS FOR THEIR FORMULATION, AND USES” (THE COCA-COLA COMPANY, priority 2005, published 2007):

Assays:
[1] = test system: panel of experts in the sensory evaluation of foods and beverages; assay: Sensory evaluation of sweetness onset and sweetness linger by expert panel; assay type: in vivo, human; design: key to Sweetness Linger: 0: no sweetness linger; 1: very slight sweetness linger; 2: slight sweetness linger; 3: moderate sweetness linger; 4: moderately high sweetness linger; 5: high sweetness linger; key to Sweetness Onset: 1: quick onset; 2: moderate onset; 3: slow onset; settings: for Sweetness Linger: rating scale 0-5, sweetness 2-3 min after water rinse, for ranges the lowest rating of all levels is reported; for Sweetness Onset: rating scale 1-3, ca. 10 mL sample tasted and expectorated, sucrose and neotame controls for calibration
Method: An exemplary method of sensory evaluation is provided in the following protocol, similar to that described hereinabove. In this test protocol, none of the samples were swallowed. All samples were expectorated and the mouth was rinsed with water after the tasting. In step 1, the 10% sucrose control sample was tasted by distributing ca. 10 mL of sample quickly throughout the oral cavity, wherein the maximal “Sweetness Intensity” was measured. This intensity is defined as a 10 on a 0-15 scale where 0 is defined as no perceptible sweetness and 15, the sweetness of 15% sucrose. The “Overall Quality” of the taste was also measured in the sucrose control and was defined as a 6 on a 1-9 scale. Immediately upon sensing maximal sweetness, the sample was expectorated, the mouth was rinsed with water and the rate of sweetness decay (“Sweetness Linger”) and “Sweetness Onset” were measured, where attention was focused on the sweetness 2-3 min after the water rinse. The sweetness linger was rated by a panel of experts in the sensory evaluation of foods and beverages using the following scale: 0=no sweetness linger, 1=very slight sweetness linger, 2=slight sweetness linger, 3=moderate sweetness linger, 4=moderately high sweetness linger, 5=high sweetness linger. The sweetness onset was rated by a panel of experts using the following scale: 1=quick onset, 2=moderate onset, 3 slow onset. After sample tasting was complete, a salty oyster cracker was chewed followed by a water rinse, and at least 5 minutes followed before tasting the next sample.
The “Sweetness Linger” rating for sucrose observed by this protocol was defined as 0 and the “Sweetness Onset” was defined as 1. The Sweetness Onset and Sweetness Linger of a neotame control sample were defined as 3 and 5, respectively.
Following calibration with the sucrose and neotame control samples, the experimental samples were tasted by the same protocol, always allowing sufficient time between samples to ensure re-equilibration of the sensory system. Re-tasting of control samples during the course of the experiment was allowed and encouraged.
The comparison taste test was performed between two controls and addition of sweet taste improving additive on the onset and/or sweetness linger.
In Examples A1-A7, where there are ranges provided, the beverage samples were made with 5-7 levels from the top to the bottom of the range, using a 1:1 dilution of the corresponding sweet taste improving compositions. The sweetness linger rating reported was the most sugar-like in sweetness linger (the lowest numerical value) attained of all the samples (i.e., the shortest sweetness linger).

[2] = Osmolarity of solution; assay type: physicochemical; settings: sucrose at 10%
Source text: Average concentrations of inorganic ions present in saliva, which are responsible for nearly all of the osmolarity of saliva, are as illustrated in Table 1 below. From the data shown, it is clear that saliva typically has an osmolarity of 70 mOsM. Sucrose at 10%, however, is 292 mOsM, more than 4-fold higher, and therefore will cause significant shrinkage of taste bud cell volume and signaling to the central nervous system (CNS). Osmolarity refers to the measure of osmoles of solute per liter of solution, wherein osmole is equal to the number of moles of osmotically active particles in an ideal solution (e.g., a mole of glucose is one osmole), whereas a mole of sodium chloride is two osmoles (one mole of sodium and one mole of chloride). Thus, in order to improve in the quality of taste of synthetic sweeteners, the osmotically active compounds or the compounds which impart osmolarity must not introduce significant off taste to the formulation.

Structure (SMILES) | Sweetness Linger [1] | Sweetness Onset [1] | Sweetness Linger ([1]; listed as sugar) | osmolarity [2] [mOsM]
COC(=O)[C@H](Cc1ccccc1)NC(=O)[C@H](CC(=O)O)NCCC(C)(C)C [neotame] | 5 | 3 | – | –
OC[C@H]1O[C@@](CO)(O[C@H]2O[C@H](CO)[C@@H](O)[C@H](O)[C@H]2O)[C@@H](O)[C@@H]1O [sucrose] | 0 | 1 | 1 | 292
